From PubChem BioAssay (NCI)
Where “and” joins values, the source holds several entries; their conditions need not be identical. Equal values may be shown once.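 1) Cells in 96-well plates. 2) Compound, 48 h, 5 concentrations. 3) Linear interpolation between surrounding doses. 4) Unreached endpoint = highest concentration. GI50 = concentration required for 50% inhibition of growth. The concentration for full growth arrest is given as TGI.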

What was measured:
Experiment in all cases: inhibition of tumour cell growth, NCI panel, 48 h
[1] = system: A549 NSCLC
[2] = system: BT-549 breast
[3] = system: HT29 colon
[4] = system: SK-MEL-5 melanoma
[5] = system: SNB-19 CNS
[6] = system: HS 578T breast
[7] = system: NCI-H460 lung
[8] = system: OVCAR-4 ovarian
[9] = system: OVCAR-5 ovarian
[10] = system: SK-OV-3 ovarian

SMILES | GI50 [1] [µM] | TGI [1] [µM] | GI50 [2] [µM] | GI50 [3] [µM] | TGI [3] [µM] | GI50 [4] [nM] | TGI [4] [µM] | GI50 [5] | TGI [5] [µM] | TGI [6] [µM] | TGI [7] [µM] | GI50 [8] [µM] | TGI [8] [µM] | GI50 [9] [µM] | TGI [9] [µM] | GI50 [10] [µM] | TGI [10] [µM] | TGI [2] [µM] | GI50 [7] [µM] | GI50 [6] [µM]
Nc1ncc(-c2ccc3ncnc(Nc4cccc(Cl)c4)c3c2)cn1 | 1.7 | > 100 | 0.262 | 1.75 | > 100 | 2310 | > 100 | 0.387 µM and 2.28 µM | > 100 |  |  |  |  |  |  |  |  |  |  | 
NC(=O)c1cc(N2CC2)c([N+](=O)[O-])cc1[N+](=O)[O-] |  | > 200 |  | > 200 | > 200 |  | > 200 | > 200 µM | > 200 | > 200 | > 77 | > 200 | > 200 | > 200 | > 200 | > 200 | > 200 |  |  | 
CSC(=O)C[C@@]12O[C@@H]([C@@H](C)C3CCC4[C@@H]5C(O)CC6=CC(=O)C=C[C@]6(C)C5CC[C@@]43C)C[C@](C)(O1)C(C)(C)O2 (some centres undefined) |  | 32 |  |  | 27.6 |  |  |  | 33.8 |  | 35.8 |  | 28.3 |  | 31.8 |  | 42.6 |  |  | 
O=C(O)/C=C/c1ccc(Oc2ccccc2C(=O)O)o1 |  | > 10 |  |  | > 10 |  | > 10 |  | > 10 | > 10 |  |  | > 10 |  |  |  | > 10 | > 10 |  | 
Cc1ccc(/C=C/C(=O)c2ccc(Cl)c(Cl)c2)cc1 |  | > 100 |  |  | > 100 |  | > 100 |  | > 100 |  | > 100 |  | > 100 |  | > 100 |  |  |  |  | 
CCN(CC)CCN(CC)CC.CCN(CC)CCN(CC)CC.[Cu+2].[Cu+2].[O-][Cl+3]([O-])([O-])[O-].[OH3+].[OH3+] | 30.2 | > 100 |  | 25.6 | 87.9 | 15600 | 29.5 | 22 µM | 36.6 |  | 37.6 | 27.7 | 51.2 |  |  | 13.9 | 27.3 |  | 15.5 | 
CCOC(=O)C12CCCC1(O)N(NC(=O)OC)C(C)=C2C(=O)OC (centres undefined) |  | > 100 |  |  | > 100 |  |  |  | > 100 |  | > 100 |  | > 100 |  | > 100 |  | > 100 |  |  | 
CC1(C)Oc2ccc3ccc(=O)oc3c2C(O)C1O (centres undefined) |  | > 100 |  |  | 71.3 |  | 29.4 |  | > 100 | > 100 | > 100 |  | > 100 |  | > 100 |  |  | 60.9 |  | 
CC(C)(C)C(=O)N1C(C(=O)O)Cc2ccccc2[C@@H]1Cc1ccccc1 (some centres undefined) |  | > 100 |  |  | > 100 |  | > 100 |  | > 100 |  | > 100 |  | > 100 |  | > 100 |  | > 100 |  |  | 
C(=N\Nc1ncc(-c2cc3cc4c(cc3o2)OCO4)s1)/c1ccco1 | 1.79 | 6.87 | 3.43 | 2.99 | 7.62 | 2070 | 4.6 | 4.73 µM | 23.1 | 22.2 | 10.3 | 1.27 | 12.2 | 2.71 | 8.67 |  |  | 15.2 | 2.59 | 2.74
Cc1cccc(-c2nnc3s/c(=C\c4ccc(N(C)C)cc4)c(=O)n23)c1 |  | > 100 |  |  |  |  | > 100 |  | > 100 |  | > 100 |  | > 100 |  | > 100 |  | > 100 |  |  | 
CCOC(=O)C1(C(=O)OCC)C(C(C)(C)C)=C(C)c2ccccc21 |  | > 100 |  |  | 23.8 |  | 21.8 |  | 45 |  | 26.3 |  | 45.3 |  | 31.4 |  | 69.5 |  |  | 
Oc1ccccc1-c1nn(CNc2ccc(Cl)cc2)c(=S)o1 | 26.3 | 99.2 | 61.1 | 24.2 | 88.1 | 2310 | > 100 | > 100 µM | > 100 | > 100 | > 100 |  |  | > 100 | > 100 | > 100 | > 100 | > 100 | 25.7 | > 100
O=C1CCCCCCC2=C1C(Sc1ccccc1)CC2 (centres undefined) |  | > 100 |  |  | 83.8 |  | > 100 |  | > 100 |  | > 100 |  | > 100 |  |  |  | > 100 |  |  | 
CSc1cc([C@@H]2C[C@H]2c2ccc(Cl)cc2)on1 | 21.6 | > 100 | 23.9 | 18.6 | > 100 |  |  | 27.4 µM | > 100 |  | 43 | 31.3 | > 100 | 14.5 | 35.2 | 50.6 | > 100 | 62 | 19 | 
CC(=O)OCc1c(O)c2c([nH]c1=O)CCc1ccccc1-2 |  | > 350 |  |  | 311 |  | 177 |  | > 350 |  | 283 |  |  |  |  |  | > 350 |  |  | 
O=[N+]([O-])c1ccc(-c2csc(N=Nc3c(O)[nH]c4ccccc34)n2)cc1 |  | 81.3 |  |  | 76.6 |  | > 100 |  | > 100 |  | 22.9 |  | > 100 |  | 45.4 |  | > 100 | 42.8 |  | 
Cc1ccc(NCC2(/N=C/c3ccccc3)OC(CO)C(O)C2O)cc1 (centres undefined) |  | > 100 |  |  | > 100 |  | > 100 |  | > 100 |  | > 100 |  | > 100 |  | > 100 |  |  |  |  | 
CC1SC(c2ccccc2Cl)N(NC(=O)C(O)c2ccccc2)C1=O (centres undefined) | 52.3 | > 100 | > 100 | > 100 | > 100 | 63900 | > 100 | > 100 µM | > 100 | > 100 | > 100 | > 100 | > 100 | > 100 | > 100 |  |  | > 100 | 66.9 | 85.3
O=S1(=O)c2ccccc2N(O)C2=NCCN21 |  | > 100 |  |  | > 100 |  | > 100 |  | > 100 |  | > 100 |  |  |  | > 100 |  | > 100 |  |  | 
CN(C)c1ccc(/C=c2\sc3nnc(-c4ccco4)n3c2=O)cc1 |  | > 100 |  |  |  |  | > 100 |  | > 100 |  | > 100 |  | > 100 |  | > 100 |  | > 100 |  |  | 
CC(=O)OC12C(C)=C(C)C(=O)N1c1ccccc1N2C(C)=O (centres undefined) |  | > 100 |  |  | > 100 |  | > 100 |  | > 100 |  | > 100 |  | > 100 |  | > 100 |  | > 100 |  |  | 
